Converted amounts (≈) assume the structure as drawn.

By MIC is commonly meant the lowest concentration that inhibits growth of the organism. Read a high MIC as weaker potency.

Among the test systems are Escherichia coli ML-35p; Escherichia coli K-12; Klebsiella pneumoniae; Escherichia coli; Listeria innocua; Micrococcus luteus A270; Escherichia coli BL21; Escherichia coli MG1655.
Holding throughout (assay): ≥ marks a high value that may be exact or a test limit, other limits are often not marked, values filed in µg/mL are converted to µM
Experiment [1] has as its system Enterococcus faecalis ATCC 29212.
Experiment [2] has as its system Escherichia coli ATCC 25922.
Experiment [3] deals with Pseudomonas aeruginosa ATCC 27853.
In experiment [4] the test system is Staphylococcus aureus ATCC 25923.
Experiment [5] concerns Staphylococcus aureus ATCC BAA-44.
Experiment [6] concerns Candida albicans ATCC 2002.
The subject of experiment [7] is Candida albicans NCPF 1467.
The subject of experiment [8] is Escherichia coli NCTC 10418.
The test system of experiment [9] is Pseudomonas aeruginosa ATCC 9027.
Experiment [10] relates to Staphylococcus aureus ATCC 12493.
The test system of experiment [11] is Staphylococcus aureus ATCC 2592.
Experiment [12] has as its system Staphylococcus aureus NCTC 10788.
Experiment [13] relates to Pseudomonas aeruginosa PAO1.
For experiment [14], the system named is Staphylococcus aureus NCTC 8325-4.
Experiment [15] relates to Salmonella enterica subsp. enterica serovar Enteritidis.
Experiment [16] deals with Staphylococcus epidermidis.

With `CC[C@H](C)[C@H](NC(=O)CN)C(=O)N[C@@H](CCCCN)C(=O)N[C@@H](CC(=O)O)C(=O)N[C@@H](CC(C)C)C(=O)N[C@@H](CC(C)C)C(=O)N[C@@H](CCCCN)C(=O)NCC(=O)N[C@@H](C)C(=O)N[C@@H](C)C(=O)N[C@@H](CCCCN)C(=O)N[C@@H](C)C(=O)N[C@@H](CC(C)C)C(=O)N[C@H](C(=O)N[C@@H](CCCCN)C(=O)N[C@H](C(=O)N[C@H](C(=O)N[C@@H](CC(C)C)C(=O)N[C@@H](CCCCN)C(N)=O)C(C)C)[C@@H](C)O)C(C)C` [GIKDLLKGAAKALVKTVLK], the MIC in experiment [1] was 50 µM (≈ 98.3 µg/mL); in experiment [2] it was 1.7 µM (≈ 3.34 µg/mL); against Escherichia coli ML-35p it was 12.5 µM (≈ 24.6 µg/mL); in [3], 25 µM (≈ 49.1 µg/mL); in [4], 4.7 µM (≈ 9.24 µg/mL); in experiment [5], 6.3 µM (≈ 12.4 µg/mL).

Turning to `CC(C)C[C@H](NC(=O)[C@H](CC(C)C)NC(=O)[C@H](CC(C)C)NC(=O)[C@@H]1CCCN1C(=O)[C@H](CC(C)C)NC(=O)[C@@H](N)Cc1ccccc1)C(=O)N[C@@H](CO)C(=O)N[C@@H](C)C(=O)N[C@@H](CC(C)C)C(=O)N1CCC[C@H]1C(=O)N[C@@H](CO)C(=O)N[C@@H](Cc1ccccc1)C(=O)N[C@@H](CC(C)C)C(=O)N[C@H]1CSSC[C@@H](C(=O)O)NC(=O)[C@H](CCCCN)NC(=O)[C@H](CCCCN)NC(=O)[C@H](Cc2ccccc2)NC(=O)[C@H](C(C)C)NC(=O)[C@H](CC(C)C)NC1=O` [FLPLLLSALPSFLCLVFKKC], the MIC in experiment [6] was at least 44 µM; in experiment [7], at least 512 µM; in experiment [2], 33 µM (≈ 74.3 µg/mL); in experiment [8], at least 512 µM; in experiment [9], above 44 µM; in [10], at least 512 µM. For the same compound, the figures for the MIC in experiment [11] and in experiment [12] were 17 µM (≈ 38.3 µg/mL) and at least 32 µM, respectively.

Turning to `CC(C)C[C@H](NC(=O)[C@H](CC(C)C)NC(=O)[C@H](CCCCN)NC(=O)[C@H](CCCCN)NC(=O)[C@H](CC(C)C)NC(=O)[C@H](CC(C)C)NC(=O)[C@H](CCCCN)NC(=O)[C@H](CCCCN)NC(=O)[C@@H](N)CC(C)C)C(=O)N[C@@H](CCCCN)C(N)=O` [LKKLLKKLLK], the MIC in the experiment with Escherichia coli K-12 is 31.3 µM (≈ 38.3 µg/mL); in the experiment with Klebsiella pneumoniae, above 500 µM; in experiment [13], 62.5 µM (≈ 76.5 µg/mL); in experiment [14], at least 500 µM.

With `CC(C)C[C@H](NC(=O)[C@@H](N)Cc1ccccc1)C(=O)N[C@@H](CO)C(=O)N[C@@H](Cc1ccccc1)C(=O)N1CCC[C@H]1C(=O)N[C@H](C(=O)N[C@H](C(=O)N[C@@H](CCCCN)C(=O)N[C@H](C(=O)N[C@@H](Cc1ccc(O)cc1)C(=O)N[C@@H](Cc1ccccc1)C(=O)N1CCC[C@H]1C(=O)N[C@@H](Cc1cnc[nH]1)C(=O)N[C@@H](Cc1ccccc1)C(=O)O)[C@@H](C)O)[C@@H](C)O)[C@@H](C)O` [FLSFPTTKTYFPHF], the MIC was found to be 9 µM (≈ 15.6 µg/mL) against Escherichia coli, 1 µM (≈ 1.73 µg/mL) in the experiment on Listeria innocua, 5 µM (≈ 8.67 µg/mL) in the experiment with Micrococcus luteus A270 and 9 µM (≈ 15.6 µg/mL) in experiment [15].

For `CC[C@H](C)[C@H](NC(=O)[C@H](CCCCN)NC(=O)[C@H](CCCN=C(N)N)NC(=O)[C@H](CCCCN)NC(=O)[C@H](CCCCN)NC(=O)[C@H](CCCCN)NC(=O)[C@H](Cc1c[nH]c2ccccc12)NC(=O)[C@H](CCCCN)NC(=O)[C@H](CC(C)C)NC(=O)[C@H](CO)NC(=O)[C@H](Cc1ccccc1)NC(=O)[C@H](CCCN=C(N)N)NC(=O)[C@H](CC(=O)O)NC(=O)[C@H](CCSC)NC(C)=O)C(=O)N[C@@H](CCCN=C(N)N)C(=O)N[C@@H](CCCN=C(N)N)C(=O)N[C@@H](CCCN=C(N)N)C(=O)N[C@@H](CCCN=C(N)N)C(=O)N[C@@H](CCCN=C(N)N)C(=O)N[C@@H](CCCN=C(N)N)C(=O)N[C@@H](CCCN=C(N)N)C(=O)N[C@@H](CCCN=C(N)N)C(=O)N[C@@H](CCCN=C(N)N)C(=O)N[C@@H](CCCN=C(N)N)C(=O)N[C@@H](CCCN=C(N)N)C(N)=O` [MDRFSLKWKKKRKIRRRRRRRRRRR], the MIC stood at 4 µM (≈ 14.5 µg/mL) with Escherichia coli BL21, 7.5 µM (≈ 27.2 µg/mL) in the experiment with Escherichia coli MG1655 and 3 µM (≈ 10.9 µg/mL) in experiment [16].

Regarding `CC(C)C[C@H](NC(=O)[C@H](CO)NC(=O)[C@H](Cc1cnc[nH]1)NC(=O)[C@H](CO)NC(=O)[C@H](CC(C)C)NC(=O)[C@@H](N)CC(C)C)C(=O)O` [LLSHSL], the MIC with Escherichia coli was 46.8 µM (≈ 31.3 µg/mL); in the experiment with Listeria innocua, at least 187 µM; against Micrococcus luteus A270 it was at least 46.8 µM.

For `CC(C)C[C@H](NC(=O)[C@H](C)NC(=O)[C@H](CC(C)C)NC(=O)[C@H](CO)NC(=O)[C@H](CC(C)C)NC(=O)[C@@H](N)Cc1ccccc1)C(=O)N[C@@H](C)C(=O)N[C@@H](C)C(=O)N[C@@H](CC(C)C)C(=O)N1CCC[C@H]1C(=O)N[C@@H](CCCCN)C(=O)N[C@@H](Cc1ccccc1)C(=O)N[C@@H](CC(C)C)C(=O)N[C@H]1CSSC[C@@H](C(=O)O)NC(=O)[C@H](CCCCN)NC(=O)[C@H](CCCCN)NC(=O)[C@H](Cc2ccccc2)NC(=O)[C@H](C(C)C)NC(=O)[C@H](CC(C)C)NC1=O` [FLSLALAALPKFLCLVFKKC], the minimal inhibitory concentration (MIC) in [7] was at least 32 µM; in experiment [2], 15 µM (≈ 33.4 µg/mL); in [8] it was at least 512 µM; in experiment [10], at least 32 µM; in [4] it was 15 µM (≈ 33.4 µg/mL); in experiment [12] it was at least 32 µM.

In the experiment on Escherichia coli MG1655, `CC[C@H](C)[C@H](NC(=O)[C@H](CCCCN)NC(=O)CNC(=O)[C@H](CC(C)C)NC(=O)[C@H](Cc1ccccc1)NC(=O)[C@H](CCC(N)=O)NC(=O)[C@H](Cc1ccccc1)NC(=O)[C@@H](N)C(C)C)C(=O)N[C@H](C(=O)N[C@@H](Cc1cnc[nH]1)C(=O)N[C@@H](Cc1cnc[nH]1)C(=O)N[C@H](C(=O)NCC(=O)N[C@@H](CC(N)=O)C(=O)N[C@@H](Cc1ccccc1)C(=O)N[C@H](C(=O)N[C@@H](Cc1cnc[nH]1)C(=O)NCC(=O)N[C@@H](Cc1ccccc1)C(=O)N[C@@H](CO)C(=O)N[C@@H](C)C(=O)N[C@H](C(=O)N[C@@H](Cc1ccccc1)C(N)=O)C(C)C)C(C)C)C(C)C)[C@@H](C)CC` [VFQFLGKIIHHVGNFVHGFSAVF] showed an MIC of at least 64 µM.

As to `CC[C@H](C)[C@H](NC(=O)[C@H](C)NC(=O)[C@H](CO)NC(=O)[C@@H]1CCCN1C(=O)[C@@H](NC(=O)[C@H](CC(C)C)NC(=O)[C@H](CO)NC(=O)[C@H](Cc1ccccc1)NC(=O)[C@H](CC(C)C)NC(=O)[C@@H](N)Cc1ccccc1)[C@@H](C)CC)C(=O)N[C@@H](C)C(=O)NCC(=O)N[C@@H](CC(C)C)C(=O)N[C@H](C(=O)N[C@@H](CO)C(=O)N[C@@H](C)C(=O)N[C@H](C(=O)N[C@@H](CCCN=C(N)N)C(=O)N[C@@H](CC(N)=O)C(N)=O)[C@@H](C)CC)C(C)C` [FLFSLIPSAIAGLVSAIRN], the MIC in [7] is 16.1 µM (≈ 32 µg/mL); in [8], at least 257 µM; in [12], 8.04 µM (≈ 16 µg/mL).

For the origin of these results see DBAASP.
